# According to US8592395B2, “Therapeutic compounds” (GlaxoSmithKline LLC, priority 2009, dated 2013):
# Tested on: HIV
# Assay: HOS assay (HOS-Luc HIV-1 LTR-luciferase reporter antiviral assay)
# Type: cell-based
# Conditions: Human immunodeficiency virus 1, 96 h; HOS-Luc cells (HOS-CD4.CCR5 with HIV-1 LTR-luciferase reporter), four-day incubation with virus, luciferase readout
# Experimental: HOS-Luc cells were created by introducing an HIV-1 LTR-luciferase reporter into HOS-CD4.CCR5 (NIH AIDS Research and Reference Reagents Program, cat. #3318). The cells were propagated in DMEM complete medium. Cells were split 1:20 by standard trypsinization when confluency reached 80% (roughly every 2 to 3 days).
# Black-walled 96-well tissue culture plates were seeded with HOS-Luc at 6×10^3 cells per well in 50 μL DMEM containing 2% FBS and placed in a humidified incubator at 37° C., 5% CO2 overnight. The following day, test compounds were serially diluted in 4-fold increments at 2× the final concentration in DMEM+2% FBS+0.2% DMSO. Diluted compound (50 μL) was transferred to the HOS-Luc cells and the plates were placed in a humidified incubator at 37° C., 5% CO2 for 1 hr. An additional 60 μL of 2× compound was transferred to a clear-walled 96-well tissue culture plate and 60 μL of virus (diluted 1:50 in tissue culture media) was added to each well and thoroughly mixed. The virus input was previously determined by titrating the virus under assay conditions without compound and selecting a dilution that gives a response in the linear range of the curve and a signal to background of at least 30. The HIV/compound mixture (100 μL) was transferred to the black-walled plates containing 100 μL of cells/compound. The plates were placed in a humidified incubator at 37° C., 5% CO2 for four days. Following the four-day incubation, 150 μL of supernatant was removed and 50 μL of reconstituted Luclite (Promega) was added to each well. For cytotoxicity assessment, 50 μL of reconstituted CellTiter-GLo (Promega) was added to each well. Each plate was topsealed and read in a Topcount (Packard) luminometer at 1 s/well.
# Raw data from the HOS-Luc assay were expressed as Relative Light Units (RLU) and normalized according to the following formula: (RLU at drug [ ]/RLU no drug)*100=% control
# The potency of test compounds are reported as IC50 values derived from the four parameter Hill equation, defined as: y=Vmax*(1−(x^n/(K^n+x^n)))+Y2 Where:
# y=normalized response data
# Vmax=upper bound of response
# Y2=lower bound or baseline of response
row,SMILES,IC50
1,"Cc1nc2ccccc2n1[C@H]1C[C@H]2CC[C@@H](C1)N2CCC(CNS(=O)(=O)c1ccccc1)c1ccccc1 (stereo partly drawn) [Example 1, N-{4-[(1R,5S)-3-(2-methyl-1H-benzimidazol-1-yl)-8-azabicyclo[3.2.1]oct-8-yl]-2-phenylbutyl}]",10 to 100 nM
2,"Cc1nc2ccccc2n1[C@H]1C[C@H]2CC[C@@H](C1)N2CCC(CN(C)S(=O)(=O)c1ccccc1)c1ccccc1 (stereo partly drawn) [Example 2, N-methyl-N-{4-[(1R,5S)-3-(2-methyl-1H-benzimidazol-1-yl)-8-azabicyclo[3.2.1]oct-8-yl]-2-phenylbutyl}benzenesulfonamide]",< 10 nM
3,"Cc1nc2ccccc2n1[C@H]1C[C@H]2CC[C@@H](C1)N2CCC(CNS(=O)(=O)c1cccc(C#N)c1)c1ccccc1 (stereo partly drawn) [Example 3, 3-cyano-N-{4-[(1R,5S)-3-(2-methyl-1H-benzimidazol-1-yl)-8-azabicyclo[3.2.1]oct-8-yl]-2-phenylbutyl}benzenesulfonamide]",10 to 100 nM
4,"Cc1nc2ccccc2n1[C@H]1C[C@H]2CC[C@@H](C1)N2CCC(CNS(=O)(=O)c1ccc(C#N)cc1)c1ccccc1 (stereo partly drawn) [Example 4, 4-cyano-N-{4-[(1R,5S)-3-(2-methyl-1H-benzimidazol-1-yl)-8-azabicyclo[3.2.1]oct-8-yl]-2-phenylbutyl}benzenesulfonamide]",10 to 100 nM
5,"Cc1nc2ccccc2n1[C@H]1C[C@H]2CC[C@@H](C1)N2CCC(CNS(C)(=O)=O)c1ccccc1 (stereo partly drawn) [Example 5, N-{4-[(1R,5S)-3-(2-methyl-1H-benzimidazol-1-yl)-8-azabicyclo[3.2.1]oct-8-yl]-2-phenylbutyl}methanesulfonamide]",10 to 100 nM
6,"Cc1nc2ccccc2n1[C@H]1C[C@H]2CC[C@@H](C1)N2CCC(CNS(=O)(=O)c1cccc(C(N)=O)c1)c1ccccc1 (stereo partly drawn) [Example 6, 3-[({4-[(1R,5S)-3-(2-methyl-1H-benzimidazol-1-yl)-8-azabicyclo[3.2.1]oct-8-yl]-2-phenylbutyl}amino)sulfonyl]benzamide]",10 to 100 nM
7,Cc1nc2ccccc2n1[C@H]1C[C@H]2CC[C@@H](C1)N2CCC(CNS(=O)(=O)c1ccc2[nH]c(=O)oc2c1)c1ccccc1 (stereo partly drawn) [Example 7],10 to 100 nM
8,"Cc1nc2ccccc2n1C1C[C@H]2CC[C@@H](C1)N2CCC(CNS(=O)(=O)c1ccc(C(N)=O)cc1)c1ccccc1 (stereo partly drawn) [Example 8, 4-[({4-[(1R,5S)-3-(2-methyl-1H-benzimidazol-1-yl)-8-azabicyclo[3.2.1]oct-8-yl]-2-phenylbutyl}amino)sulfonyl]benzamide]",10 to 100 nM
9,"COP(=O)(NCC(CCN1[C@@H]2CC[C@H]1C[C@@H](n1c(C)nc3ccccc31)C2)c1ccccc1)OC (stereo partly drawn) [Example 9, dimethyl{4-[(1R,5S)-3-(2-methyl-1H-benzimidazol-1-yl)-8-azabicyclo[3.2.1]oct-8-yl]-2-phenylbutyl}amidophosphate]",10 to 100 nM
10,"Cc1nc2ccccc2n1[C@H]1C[C@H]2CC[C@@H](C1)N2CCC(CNS(=O)(=O)CC(F)(F)F)c1ccccc1 (stereo partly drawn) [Example 10, 2,2,2-trifluoro-N-{4-[(1R,5S)-3-(2-methyl-1H-benzimidazol-1-yl)-8-azabicyclo[3.2.1]oct-8-yl]-2-phenylbutyl}ethanesulfonamide]",10 to 100 nM
11,"Cc1nc2ccncc2n1[C@H]1C[C@H]2CC[C@@H](C1)N2CCC(CNS(=O)(=O)c1ccccc1)c1ccccc1 (stereo partly drawn) [Example 11, N-{4-[(1R,5S)-3-(2-methyl-3H-imidazo[4,5-c]pyridin-3-yl)-8-azabicyclo[3.2.1]oct-8-yl]-2-phenylbutyl}benzenesulfonamide]",10 to 100 nM
12,"Cc1nc2ccccc2n1[C@H]1C[C@H]2CC[C@@H](C1)N2CCC(CNS(=O)(=O)N1CCOCC1)c1ccccc1 (stereo partly drawn) [Example 12, N-{4-[(1R,5S)-3-(2-methyl-1H-benzimidazol-1-yl)-8-azabicyclo[3.2.1]oct-8-yl]-2-phenylbutyl}-4-mopholinesulfonamide]",10 to 100 nM
13,"CC(=O)N1CCc2nc(C)n([C@H]3C[C@H]4CC[C@@H](C3)N4CCC(CNS(=O)(=O)c3ccccc3)c3ccccc3)c2C1 (stereo partly drawn) [Example 13, N-{4-[(1R,5S)-3-(5-acetyl-2-methyl-4,5,6,7-tetrahydro-3H-imidazo[4,5-c]pyridin-3-yl)-8-azabicyclo[3.2.1]oct-8-yl]-2-phenylbutyl}benzenesulfonamide]",< 10 nM
14,"Cc1nc2ccccc2n1[C@H]1C[C@H]2CC[C@@H](C1)N2CCC(CNS(=O)(=O)NC1CCC1)c1ccccc1 (stereo partly drawn) [Example 14, N-cyclobutyl-N′-{4-[(1R,5S)-3-(2-methyl-1H-benzimidazol-1-yl)-8-azabicyclo[3.2.1]oct-8-yl]-2-phenylbutyl}sulfamide]",10 to 100 nM
15,"Cc1nc2ccccc2n1[C@H]1C[C@H]2CC[C@@H](C1)N2CCC(CNS(=O)(=O)NC1CCC(F)(F)CC1)c1ccccc1 (stereo partly drawn) [Example 15, N-(4,4-difluorocyclohexyl)-N′-{4-[(1R,5S)-3-(2-methyl-1H-benzimidazol-1-yl)-8-azabicyclo[3.2.1]oct-8-yl]-2-phenylbutyl}sulfamide]",10 to 100 nM
16,"Cc1nnc(C(C)C)n1[C@H]1C[C@H]2CC[C@@H](C1)N2CCC(CNC(=O)C1CCC(F)(F)CC1)c1ccccc1 (stereo partly drawn) [Example 16, 4,4-difluoro-N-(4-{(1R,5S)-3-[3-methyl-5-(1-methylethyl)-4H-1,2,4-triazol-4-yl]-8-azabicyclo[3.2.1]oct-8-yl}-2-phenylbutyl)cyclohexanecarboxamide]",100 to 1000 nM
17,"Cc1nnc(C(C)C)n1[C@H]1C[C@H]2CC[C@@H](C1)N2CCC(CNS(=O)(=O)c1ccccc1)c1ccccc1 (stereo partly drawn) [Example 17, N-(4-{(1R,5S)-3-[3-methyl-5-(1-methylethyl)-4H-1,2,4-triazol-4-yl]-8-azabicyclo[3.2.1]oct-8-yl}-2-phenylbutyl)benzenesulfonamide]",100 to 1000 nM
18,"Cc1nnc(C(C)C)n1[C@H]1C[C@H]2CC[C@@H](C1)N2CCC(CNC(=O)C1CC(F)(F)C1)c1ccccc1 (stereo partly drawn) [Example 18, 3,3-difluoro-N-(4-{(1R,5S)-3-[3-methyl-5-(1-methylethyl)-4H-1,2,4-triazol-4-yl]-8-azabicyclo[3.2.1]oct-8-yl}-2-phenylbutyl)cyclobutanecarboxamide]",100 to 1000 nM
19,"Cc1nc2ccccc2n1[C@H]1C[C@H]2CC[C@@H](C1)N2CCC(C)(CNS(=O)(=O)c1ccccc1)c1ccccc1 (stereo partly drawn) [Example 19, N-{2-methyl-4-[(1R,5S)-3-(2-methyl-1H-benzimidazol-1-yl)-8-azabicyclo[3.2.1]oct-8-yl]-2-phenylbutyl}benzenesulfonamide]",100 to 1000 nM
20,"Cc1nc2ccccc2n1[C@H]1C[C@H]2CC[C@@H](C1)N2CCC(C)(CN(C)S(=O)(=O)c1ccccc1)c1ccccc1 (stereo partly drawn) [Example 20, N-methyl-N-{2-methyl-4-[(1R,5S)-3-(2-methyl-1H-benzimidazol-1-yl)-8-azabicyclo[3.2.1]oct-8-yl]-2-phenylbutyl}benzenesulfonamide]",< 10 nM
21,"Cc1nc2ccccc2n1[C@H]1C[C@H]2CC[C@@H](C1)N2CCC(C)(CNC(=O)C1CCC(F)(F)CC1)c1ccccc1 (stereo partly drawn) [Example 21, 4,4-difluoro-N-{2-methyl-4-[(1R,5S)-3-(2-methyl-1H-benzimidazol-1-yl)-8-azabicyclo[3.2.1]oct-8-yl]-2-phenylbutyl}cyclohexanecarboxamide]",100 to 1000 nM
22,"Cc1nc2ccccc2n1[C@H]1C[C@H]2CC[C@@H](C1)N2CCC(C)(CN(C)C(=O)C1CCC(F)(F)CC1)c1ccccc1 (stereo partly drawn) [Example 22, 4,4-difluoro-N-methyl-N-{2-methyl-4-[(1R,5S)-3-(2-methyl-1H-benzimidazol-1-yl)-8-azabicyclo[3.2.1]oct-8-yl]-2-phenylbutyl}cyclohexanecarboxamide]",100 to 1000 nM
23,"Cc1nnc(C(C)C)n1[C@@H]1C[C@H]2CC[C@@H](C1)N2CCC(C)(CNC(=O)C1CCC(F)(F)CC1)c1ccccc1 (stereo partly drawn) [Example 23, 4,4-difluoro-N-(2-methyl-4-{(1R,5S)-3-[3-methyl-5-(1-methylethyl)-4H-1,2,4-triazol-4-yl]-8-azabicyclo[3.2.1]oct-8-yl}-2-phenylbutyl)cyclohexanecarboxamide]",100 to 1000 nM
24,"Cc1nnc(C(C)C)n1[C@@H]1C[C@H]2CC[C@@H](C1)N2CCC(C)(CNS(=O)(=O)c1ccccc1)c1ccccc1 (stereo partly drawn) [Example 24, N-(2-methyl-4-{(1R,5S)-3-[3-methyl-5-(1-methylethyl)-4H-1,2,4-triazol-4-yl]-8-azabicyclo[3.2.1]oct-8-yl}-2-phenylbutyl)benzenesulfonamide]",100 to 1000 nM
